Reference: patent US4056625A, “Pesticidal compositions containing benzodioxole derivatives and methods of combating pests” (priority 1972, dated 1977)
Values after ≈ are worked out from the molar mass of the structure shown. Read-outs that look alike come from different tables or passages of the source.

Key:
Solubility = format: physicochemical; details: compared with compound 5
[1] = test system: adult red spider mites (Tetranychus telarius); test: LC50 against adult red spider mites on sprayed French beans (Example 73); format: in vivo; details: read-out: LC50 value
Description: (§1) If complete kill was obtained at the highest dosage rate, the test was repeated using a logarithmically reducing dose regime until less than 50% mortality was recorded. The LC50 was then calculated from the line of best fit from the data plotted on log/provit analysis paper.
(§2) Similarly LC50 values were obtained against various pests as described in Examples 70-73 where, however, the LC50 values are abbreviated on a 0-6 scale where
Similarly, LC50 values were obtained for each of Compounds 1, 2, 4, 5 and 6 against adult red spider mites (Tetranychus telarius), of the order Acarina. The tests were carried out by spraying infected French beans with a 50% acetone water solution of the compound, containing 500 ppm of Lissapol NX as a wetting agent, and recording the mortality after 48 hours. The highest dosage rate employed was 1000 ppm which is equivalent to 10 lb/acre (11.20 kg/ha).

rats and mice = test: Mammalian toxicity (overall comparison); format: in vivo; details: compared with compound 5
Description: (§3) Mammalian toxicity was assessed by measuring the acute oral LD50 to rats and mice. Componds were dissolved or suspended in a 0.4% tragacanth solution and administered by stomach tube to the test animal. The mice used were 10 to 15 g weanlings of the Carshalton CFW strain whilst the rats were 30 to 40 g weanlings of Wystar strain. Three replicates per dosage rate were employed and the mortality was recorded daily for up to 5 days. The LD50 values were calculated as for those for insecticidal and acaricidal activity above.

rats = test: Acute oral LD50 to rats (Example 76); format: in vivo, rat (Wystar strain); details: rat female, by stomach tube in 0.4% tragacanth, up to 5 days
Description: as §3

[2] = Acute oral LD50 to rats (Example 76); format: in vivo, rat (Wystar strain); details: in vivo, po; rat male, by stomach tube in 0.4% tragacanth, up to 5 days
Description: as §3

[3] = test system: adult female houseflies (Musca domestica); test: Housefly mortality on treated filter papers (Examples 32-40); format: in vivo; details: 100 milligrams per square foot, after 24 hours
From the text: 9 centimeter diameter filter papers treated with aqueous acetone solutions of each of the compounds
at rates equivalent to 100 milligrams per square foot (100 mgm./0.09 m^2.) of active ingredient were placed in 9 centimeter diameter Petri dishes. Batches of adult female houseflies (Musca domestica) lightly anaesthetised with carbon dioxide were then introduced into the dishes and a glass lid placed over each.

[4] = test system: adult female houseflies (Musca domestica); test: LC50 against adult female houseflies on filter papers (Example 70); format: in vivo; details: for LC50 value: adult female houseflies, 24 hours, 0-6 scale (mg/ft^2); for activity against houseflies (in words): compared with compound 5
Description: as §1, §2
LC50 values were obtained for each of Compounds 1, 2, 3, 4, 5 and 6 against adult female houseflies (Musca domestica), of the order Diptera. The tests were carried out by adding acetone solutions of the compounds to 9 cm diameter filter papers in the base of 9 cm diameter crystallising dishes, placing the houseflies in the dishes after the acetone had evaporated, closing the dishes with Petri dish lids and counting the mortality after 24 hours. The highest dosage rate employed was 1000 mg/ft^2 (10.65 g/m^2).

[5] = test system: yellow fever mosquito (Aedes aegypti); test: Persistency against yellow fever mosquito on treated glass plates (Example 75); format: in vivo; details: 100 mg/ft^2 (1.065 g/m^2), adult female mosquitos, 7 day intervals until less than 50% mortality
Description: Persistency was measured against yellow fever mosquito (Aedes aegypti), of the order Diptera, by treating glass plates with acetone solutions of the compounds listed below to produce a deposit equivalent to 100 mg/ft^2 (1.065 g/m^2), and caging adult female mosquitos on these surfaces for 24 hours at 7 day intervals until less than 50% mortality was recorded.

[6] = Acute oral LD50 to mice (Example 76); set-up: species or system mouse (Carshalton CFW strain); details: in vivo, mouse, by stomach tube in 0.4% tragacanth, up to 5 days
Description: as §3

[7] = test system: larvae of the sheep maggot fly (Lucilia sericata); test: LC50 against sheep maggot fly larvae on dental rolls (Example 71); format: in vivo; details: for LC50: Lucilia sericata, read-out: LC50 value; for activity against sheep maggot fly (in words): compared with compound 5
Description: as §1, §2
Similarly, LC50 values were obtained for each of Compounds 1, 2, 3, 4, 5 and 6 against larvae of the sheep maggot fly (Lucilia sericata), of the order Diptera. The tests were carried out by placing newly hatched larvae on dental rolls contained in glass vials and soaked with 1 ml of blood serum containing the compound. The mortality was assessed after 24 hours. The highest dosage rate employed was 1000 ppm.

[8] = test system: sheep maggot fly (Lucila sericata); test: Persistency on sheep against sheep maggot fly; format: in vivo; details: compared with compound 5
[9] = test system: 2nd stage nymph of the German cockroach (Blattella germanica); test: LC50 against German cockroach nymphs in treated glass tubes (Example 69); format: in vivo; details: for LC50 value: 2nd stage nymph German cockroach, 48 hours, 0-6 scale
Description: Compounds 2 and 4 and also 2,2-dimethyl-1,3- benzodioxol-4-yl N-methylcarbamate(compound 5) and 2,2-dimethyl-1,3-benzodioxol-4-yl N-acetyl-N-methylcarbamate (compound 6) were tested for activity against the 2nd stage nymph of the German cockroach (Blattella germanica), of the order Orthoptera, by treating the walls of glass tubes (9.0 cm high × 4.5 cm diameter) with acetone solutions of the compounds and after the acetone had evaporated caging the insects in the tubes for 48 hours. The highest dosage rate employed was 50 mg/ft^2 (532 mg/m^2).
as §1
The LC50 values are abbreviated on a 0-6 scale where

[10] = test system: larvae of the cattle tick (Boophilus microplus); test: LC50 against cattle tick larvae (Example 72); format: in vivo; details: Rhipicephalus microplus, 24 hours, 0-6 scale (ppm)
Description: as §1, §2
Similarly, LC50 values were obtained for each of Compounds 2 and 4 against larvae of the cattle tick (Boophilus microplus), of the order Acarina. The tests were carried out evaporating 1 ml of an acetone solution of the compound on 9 cm diameter filter papers, folding the papers twice in half after drying to give quadrant shaped packets and sealing the tick larvae therein for 24 hours by means of a paper clip. The highest dosage rate employed was 1000 ppm.

[11] = test system: German cockroaches (Blattella germanica); test: Persistency against German cockroaches on treated glass plates (Example 74); format: in vivo; details: 100 mg/ft^2 (1.065 g/m^2), 2nd stage nymphs, 7 day intervals until less than 50% mortality
Description: Persistency was measured against German cockroaches (Blattella germanica), or the order Orthoptera, by treating glass plates with acetone solutions of the compunds listed below to produce a deposit equivalent to 100 mg/ft^2 (1.065 g/m^2), and caging 2nd stage nymph cockroaches on these surfaces for 48 hours at 7 day intervals until less than 50% mortality was recorded.

[12] = test system: second instar larvae of the cabbage white butterfly (Pieris brassicae); test: Cabbage white butterfly larvae on treated cabbage leaf discs (Examples 41-48); format: in vivo; details: 10, 5, 1, 0.5 and 0.25 pounds per acre, three replications, after 48 hours
From the text: 7 centimeter diameter circular discs of cabbage leaves were painted with 1 milliliter aqueous acetone solutions of each of the following compounds:
in each case at concentrations equivalent to leaf applications of 10, 5, 1, 0.5 and 0.25 pounds per acre (11.2, 5.6, 1.12, 0.56 and 0.28 kg./hectare) of active ingredient. When the deposit on the leaf discs had dried, each leaf disc was placed in a 9 centimeter diameter Petri dish, infested with ten second instar larvae of the cabbage white butterfly (Pieris brassicae) and covered with a glass lid. Three replications were made with each compound at each concentration level.

[13] = test system: first stage larvae of the cattle tick, Boophilus microplus; test: Cattle tick larvae in treated filter paper packets (Example 65); format: in vivo; details: 30 parts per million, 25° C, 24 hours
Description: Filter papers, diameter 9 cm., were treated with 1 ml. of acetone solutions containing 30 parts per million of 2,2-dimethyl-1,3-benzodioxol-4-yl N-methylcarbamate or 7-chloro-2,2-dimethyl-1,3-benzodioxol-4-yl N-methylcarbamate. When they had dried, they were folded into quadrant shaped packets, infested with 20 first stage larvae of the cattle tick, Boophilus microplus, closed with a metal clip and kept at 25° C for 24 hours.

[14] = test system: adult apterous vetch aphids (Megoura viciae); test: Vetch aphids on sprayed field beans (Examples 49 and 50); format: in vivo; details: 100 parts per million, 50 gallons per acre, 24 hours
From the text: Aqueous suspensions containing 100 parts per million of 2,2-dimethyl-1,3-benzodioxol-4-yl N-methylcarbamate and 2,2-dimethyl-1,3-benzodioxol-4-yl N-acetyl-N-methylcarbamate were sprayed at a rate equivalent to 50 gallons per acre (585 liters per hectare) on young field beans (Vicia faba) infested with adult apterous vetch aphids (Megoura viciae). After treatment the plants were enclosed in glass cages with gauze tops for ventilation.

[15] = test system: domestic and public health insect pests; test: Indoor treatment against domestic and public health insect pests; format: in vivo; details: 200 mg per square meter, aqueous spray containing 0.25% active ingredient; ants, bed bugs, fleas, houseflies, silverfish, mosquitoes, wasps, carpet beetles, crickets, cockroaches
From the text: In a preferred application, the compounds and especially 2,2-dimethyl-1,3-benzodioxol-4-yl N-methylcarbamate are used to combat domestic and public health insect pests. For this use, the compounds are generally applied indoors, e.g. in buildings or on ships, for example in food preparation or storage areas e.g. in houses, flats, warehouses and ships. The compounds are suitably applied at a rate of 50-2000, preferably about 50-1,000, for example 200, mg per square meter.

[16] = test system: first instar larvae of the sheep blowfly (Lucilia sericata); test: Sheep blowfly larvae on treated cotton wool pads (Examples 53-60); format: in vivo; details: 1/2 ml. of acetone solution on cotton wool pads, after 24 hours
Description: Cylindrical pads of cotton wool, approximate diameter 1 cm., length 2 cms. were treated with 1/2 ml. of acetone solutions of the following carbamates:
After leaving for 12 hours to dry, the pads were treated with 1 ml. of sheep blood serum and infested with 20 first instar larvae of the sheep blowfly (Lucilia sericata). After 24 hours, the blowflies were examined and found to be all dead; insects similarly infested on untreated pads were unaffected.

Compound | solubility in organic solvents (in words) (Solubility) | LC50 ([1]; 48 h) [µg/mL] | mammalian toxicity (in words) (rats and mice) | Acute oral LD50, rat female (rats) [mg/kg body wt.] | LD50 at 120 h [2] [mg/kg] | mortality of houseflies [3] | LC50 value [4] | activity against houseflies (in words) [4] | LD50 at 120 h [6] [mg/kg] | LC50 ([7]; 24 h) [µg/mL] | activity against sheep maggot fly (in words) [7] | persistency on sheep against sheep maggot fly (in words) [8] | LC50 value [9] | activity against cockroaches (in words) [9] | LC50 [10] [µg/mL] | Persistency [11] [days] | also measured
CC(=O)N(C)C(=O)Oc1cccc2c1OCO2 [Compound 1, 1,3-benzodioxol-4-yl N-acetyl-N-methylcarbamate] | higher solubility in organic solvents than is compound 5 | 100 to 299 (≈ 422 to 1260 µM) | lower mammalian toxicity than does compound 5 | > 1000 | > 1000 | all found to be dead | 5 (3-9 mg/ft^2 (32-106 mg/m^2)) | as good or better activity against houseflies than does compound 5 | > 4000 | 30 to 99 (≈ 126 to 417 µM) | – | – | – | – | – | – | Persistency [5]: 35 days
CCCC(=O)N(C)C(=O)Oc1cccc2c1OC(C)(C)O2 [Compound 3, 2,2-dimethyl-1,3-benzodioxol-4-yl N-butyryl-N-methylcarbamate] | higher solubility in organic solvents than is compound 5 | – | lower mammalian toxicity than does compound 5 | > 1000 | > 1000 | all found to be dead | 4 (10-29 mg/ft^2 (107-310 mg/m^2)) | as good or better activity against houseflies than does compound 5 | 2000 | 3 to 9 (≈ 10.2 to 30.7 µM) | as active as compound 5 against sheep maggot fly | – | – | – | – | – | –
CCC(=O)N(C)C(=O)Oc1cccc2c1OC(C)(C)O2 [Compound 2, 2,2-dimethyl-1,3-benzodioxol-4-yl N-propionyl-N-methylcarbamate] | higher solubility in organic solvents than is compound 5 | 300 to 1000 (≈ 1070 to 3580 µM) | lower mammalian toxicity than does compound 5 | – | – | – | 5 (3-9 mg/ft^2 (32-106 mg/m^2)) | as good or better activity against houseflies than does compound 5 | 280 | 3 to 9 (≈ 10.7 to 32.2 µM) | as active as compound 5 against sheep maggot fly | much better persistency on sheep | 6 (<0.5 mg/ft^2 (<5.3 mg/m^2)) | outstandingly good activity against cockroaches | 3 to 9 (≈ 10.7 to 32.2 µM) | 21 to 28 | –
CCCCC(=O)N(C)C(=O)Oc1cccc2c1OC(C)(C)O2 [Compound 4, 2,2-dimethyl-1,3-benzodioxol-4-yl N-pentanoyl-N-methylcarbamate] | higher solubility in organic solvents than is compound 5 | 300 to 1000 (≈ 976 to 3250 µM) | lower mammalian toxicity than does compound 5 | – | – | – | 4 (10-29 mg/ft^2 (107-310 mg/m^2)) | as good or better activity against houseflies than does compound 5 | 170 | 30 to 99 (≈ 97.6 to 322 µM) | – | much better persistency on sheep | 5 (0.15-0.5 mg/ft^2 (1.6-5.3 mg/m^2)) | outstandingly good activity against cockroaches | 30 to 99 (≈ 97.6 to 322 µM) | > 35 | –
CNC(=O)Oc1cccc2c1OC(C)(C)O2 [Compound 5, 2,2-dimethyl-1,3-benzodioxol-4-yl N-methylcarbamate] | – | – | – | – | 45 | all found to be dead | 4 (10-29 mg/ft^2 (107-310 mg/m^2)) | – | 45 | – | – | – | 5 (0.15-0.5 mg/ft^2 (1.6-5.3 mg/m^2)) | outstandingly good activity against cockroaches | – | – | LC50 ([1]; adult red spider mites, 48 hours, 0-6 scale (ppm)): > 1000 µg/mL; mortality of cabbage white butterfly larvae [12]: all found to be dead; mortality of cattle tick larvae [13]: all the ticks in the treated filter papers were dead; kill of vetch aphids [14]: complete kill of the aphids in 24 hours; effectiveness against domestic and public health pests (in words) [15]: effective against a wide range of such pests; mortality of sheep blowfly larvae [16]: all dead; LC50 ([7]; sheep maggot fly larvae, 24 hours, 0-6 scale (ppm)): 3 to 9 µg/mL (≈ 13.4 to 40.3 µM)
